US20260035367A1 (Celgene Corporation, priority 2021, published 2026)
Where a name gives a salt, the structure may show the parent alone. Read-outs that look alike come from different tables or passages of the source.

Columns and labels:
[1] = biological target: T1, Recombinant human PKC-delta (His-tagged 345-676) (Homo sapiens, UniProt Q05655); experiment: PKC-delta inhibition assay (HTRF KinEASE kit); type: biochemical; details: ratio, PKC-theta vs PKC-delta HTRF; for PKC-theta/PKC-delta selectivity (binned): binned A to G
T1 construct: PKC-delta (His-tagged 345-676); His
T1 sequence (Q05655 345-676): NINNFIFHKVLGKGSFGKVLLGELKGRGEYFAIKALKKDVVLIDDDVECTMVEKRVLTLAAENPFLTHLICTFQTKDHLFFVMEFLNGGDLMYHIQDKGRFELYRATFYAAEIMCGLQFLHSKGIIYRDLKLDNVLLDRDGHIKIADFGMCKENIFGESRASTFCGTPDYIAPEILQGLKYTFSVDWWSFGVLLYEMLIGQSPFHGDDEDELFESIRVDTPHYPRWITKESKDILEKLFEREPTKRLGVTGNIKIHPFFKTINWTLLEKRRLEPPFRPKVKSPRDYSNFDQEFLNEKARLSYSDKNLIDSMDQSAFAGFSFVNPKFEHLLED

[2] = system: IL-2 secretion by human effector memory T cells (TEM); experiment: Effector memory T cells IL-2 release assay (CD3/CD28 stimulation, HTRF IL-2 detection); type: cell-based; details: Homo sapiens, T-cell, 24 h
Description: Test compound-mediated inhibition of NFκB signalling in T cells was assessed by quantification of the IL-2 secretion by human effector memory T cells (TEM) upon treatment and stimulation. Human TEM cells were isolated from buffy coats of healthy donors obtained from the French blood bank.
Finally, 10 doses of test compound, originally prepared in DMSO by serial semi-log step dilution, were also added to cells in triplicate wells. Final DMSO concentration in wells was 0.1% in a total volume of 100 μL complete medium. Plates were incubated for 24 h at 37° C. in 5% CO2 atmosphere. After incubation, cell suspensions were centrifuged at 400×g and culture supernatants were recovered and stored at −80° C. […] IL-2 levels were determined in cell supernatants using an HTRF human IL-2 detection kit (Cisbio, cat #62HIL02PEH).

[3] = biological target: T2, Recombinant human PKC-theta (His-tagged 362-706) (Homo sapiens, UniProt Q04759); experiment: PKC-theta inhibition assay (HTRF KinEASE kit); type: biochemical; details: STK substrate 525 nM
T2 construct: Recombinant human PKC-theta (His-tagged 362-706); His
T2 sequence (Q04759 362-706): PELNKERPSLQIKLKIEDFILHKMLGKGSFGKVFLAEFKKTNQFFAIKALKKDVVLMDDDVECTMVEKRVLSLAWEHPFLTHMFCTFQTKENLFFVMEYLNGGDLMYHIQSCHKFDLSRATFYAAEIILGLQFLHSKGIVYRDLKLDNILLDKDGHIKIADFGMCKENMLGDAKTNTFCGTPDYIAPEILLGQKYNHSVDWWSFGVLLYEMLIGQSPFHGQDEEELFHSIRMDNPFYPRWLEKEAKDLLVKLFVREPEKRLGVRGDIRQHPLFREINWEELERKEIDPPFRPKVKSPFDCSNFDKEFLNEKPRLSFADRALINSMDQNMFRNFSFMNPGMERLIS
Description: PKC-theta and PKC-delta biochemical activities were measured using the PKC-theta HTRF KinEASEkit kit, according to manufacturer's instructions (Cisbio, catalogue number 61ST1PEJ). Briefly, the kinase buffer component of the kit was supplemented with 10 mM MgCl2, 1 mM DTT and 0.1% Tween 20. […] The streptavidin_XL665 and STK antibody-cryptate detection reagents were mixed according to the manufacturer's instructions. Test compounds were diluted in DMSO in a series of 10 semi-log step doses; 10 nL of each compound dose were dispensed in 384 well plates. […] The reaction was started by addition of the substrate and ATP and incubated at 25° C. for 30 minutes or 20 minutes for the PKC-theta and PKC-delta assays, respectively. The detection reagents were added, and the plate was incubated in the dark for 2 hours. […] The ratio of acceptor and donor emission signals was calculated for each well. Percent inhibition values were calculated from the HTRF ratios at different doses and fitted to a 4-parameter logistic curve to determine IC50 values (see Table 2).

[4] = binned A to G, read-out: PKC-theta IL2 pIC50 (binned) (converted)
[5] = read-out: PKC-theta IL2 pIC50 (converted)
[6] = ATP 6.5 μM, binned A to H, read-out: PKC-theta HTRF pIC50 (binned) (converted)
[7] = ATP 6.5 μM, read-out: PKC-theta HTRF pIC50 (converted)

| SMILES | PKC-theta/PKC-delta selectivity [1] | PKC-theta/PKC-delta selectivity (binned) [1] | IC50 [2, 4] | IC50 [2, 5] | IC50 [3, 6] | IC50 [3, 7] | IC50 ([3]; PKC-theta HTRF pIC50 (binned), ATP 6.5 μM, binned A to H) | IC50 ([3]; PKC-theta HTRF pIC50, ATP 6.5 μM) |
| --- | --- | --- | --- | --- | --- | --- | --- | --- |
| CC[C@H]1CN(c2cc(C(F)(F)F)cc(-c3ccnc4c3[C@](C)(OC)C(=O)N4)n2)CCN1 (single isomer, unassigned) [Example 191] | 22 | C (a ratio of between 20 and 30) | 100 to 316 nM | 251 nM | 10 to 31.6 nM | 15.8 nM | – | – |
| CO[C@]1(C)C(=O)Nc2nccc(-c3cc(C(C)(F)F)cc(N4CCNC[C@H]4C)n3)c21 (single isomer, unassigned) [Example 193] | 16 | D (a ratio of between 10 and 20) | 31.6 to 100 nM | 79.4 nM | 3.16 to 10 nM | 10 nM | – | – |
| CC[C@]1(C)C(=O)Nc2nccc(-c3cc(C(F)(F)F)cc(N4CCNC[C@H]4C)n3)c21 (single isomer, unassigned) [Example 197] | 14 | D (a ratio of between 10 and 20) | 10 to 31.6 nM | 15.8 nM | 0.316 to 1 nM | 1 nM | – | – |
| CC[C@@]1(C)C(=O)Nc2nccc(-c3cc(C(F)(F)F)cc(N4CCNC[C@H]4C)n3)c21 (single isomer, unassigned) [Example 198] | 30 | C (a ratio of between 20 and 30) | 31.6 to 100 nM | 63.1 nM | 3.16 to 10 nM | 3.98 nM | – | – |
| CC[C@]1(C)C(=O)Nc2nccc(-c3cc(C(C)(F)F)cc(N4CCN[C@@H](C)C4)n3)c21 (single isomer, unassigned) [Example 199] | 16 | D (a ratio of between 10 and 20) | 10 to 31.6 nM | 25.1 nM | 1 to 3.16 nM | 1.58 nM | – | – |
| CC[C@@]1(C)C(=O)Nc2nccc(-c3cc(C(C)(F)F)cc(N4CCN[C@@H](C)C4)n3)c21 (single isomer, unassigned) [Example 200] | 27 | C (a ratio of between 20 and 30) | 31.6 to 100 nM | 79.4 nM | 3.16 to 10 nM | 5.01 nM | – | – |
| CC[C@]1(C)C(=O)Nc2nccc(-c3cc(C(C)(F)F)cc(N4CCNC[C@H]4C)n3)c21 (single isomer, unassigned) [Example 201] | 18 | D (a ratio of between 10 and 20) | 3.16 to 10 nM | 7.94 nM | 0.316 to 1 nM | 0.501 nM | – | – |
| CC[C@@]1(C)C(=O)Nc2nccc(-c3cc(C(C)(F)F)cc(N4CCNC[C@H]4C)n3)c21 (single isomer, unassigned) [Example 202] | 22 | C (a ratio of between 20 and 30) | 31.6 to 100 nM | 50.1 nM | 3.16 to 10 nM | 3.98 nM | – | – |
| CC[C@]1(C)C(=O)Nc2nccc(-c3cc(C(C)(F)F)cc(N4CCCNCC4)n3)c21 (single isomer, unassigned) [Example 205] | 13 | D (a ratio of between 10 and 20) | 31.6 to 100 nM | 79.4 nM | 3.16 to 10 nM | 3.98 nM | – | – |
| CC[C@@]1(C)C(=O)Nc2nccc(-c3cc(C(C)(F)F)cc(N4CCCNCC4)n3)c21 (single isomer, unassigned) [Example 206] | 23 | C (a ratio of between 20 and 30) | 316 to 1000 nM | 631 nM | 31.6 to 100 nM | 31.6 nM | – | – |
| CC(c1cccc(-c2ccnc3[nH]c(=O)[nH]c23)c1)N(C)C (stereo not drawn) [Example 1] | 1 | F (a ratio of between 1 and 5) | > 1000 nM | 10000 nM | 316 to 1000 nM | 501 nM | – | – |
| O=c1[nH]c2nccc(-c3cccc(N4CCNCC4)c3)c2[nH]1 [Example 2] | 2 | F (a ratio of between 1 and 5) | > 1000 nM | 10000 nM | 316 to 1000 nM | 501 nM | – | – |
| CN(C)Cc1cccc(-c2ccnc3[nH]c(=O)[nH]c23)c1 [Example 3] | 1 | F (a ratio of between 1 and 5) | > 1000 nM | 5010 nM | 316 to 1000 nM | 794 nM | – | – |
| O=C1Cc2c(-c3cccc(N4CCNCC4)c3)ccnc2N1 [Example 4] | 8 | E (a ratio of between 5 and 10) | > 1000 nM | 5010 nM | 100 to 316 nM | 251 nM | – | – |
| CC1C(=O)Nc2nccc(-c3cccc(N4CCNCC4)c3)c21 (stereo not drawn) [Example 5] | 4 | F (a ratio of between 1 and 5) | 316 to 1000 nM | 794 nM | 31.6 to 100 nM | 79.4 nM | – | – |
| O=c1[nH]c2nccc(-c3cccc(N4CCNCC4)c3)c2o1 [Example 6] | 2 | F (a ratio of between 1 and 5) | > 1000 nM | 10000 nM | > 1000 nM | 1000 nM | – | – |
| O=c1[nH]c2nccc(-c3cc(F)cc(N4CCNCC4)c3)c2[nH]1 [Example 7] | 2 | F (a ratio of between 1 and 5) | > 1000 nM | 2510 nM | 100 to 316 nM | 100 nM | – | – |
| C[C@H]1CNCCN1c1cccc(-c2ccnc3[nH]c(=O)[nH]c23)c1 [Example 8, 7-[3-[(2S)-2-methylpiperazin-1-yl]phenyl]-1,3-dihydroimidazo[4,5-b]pyridin-2-one dihydrochloride] | 2 | F (a ratio of between 1 and 5) | > 1000 nM | 3980 nM | – | – | 316 to 1000 nM | 398 nM |
| COc1cc(-c2ccnc3[nH]c(=O)[nH]c23)cc(N2CCNCC2)c1 [Example 9] | 1 | G (a ratio of 0 to 1) | > 1000 nM | 1260 nM | > 1000 nM | 2000 nM | – | – |
| O=c1[nH]c2nccc(-c3cc(Cl)cc(N4CCNCC4)c3)c2[nH]1 [Example 10] | 1 | F (a ratio of between 1 and 5) | > 1000 nM | 2000 nM | 316 to 1000 nM | 316 nM | – | – |
| C[C@@H]1CN(c2cccc(-c3ccnc4[nH]c(=O)[nH]c34)c2)C[C@H](C)N1 [Example 11] | 4 | F (a ratio of between 1 and 5) | > 1000 nM | 6310 nM | > 1000 nM | 2510 nM | – | – |
| O=c1[nH]c2nccc(-c3cccc(N4CCNCC4c4cccnc4)c3)c2[nH]1 (stereo not drawn) [Example 12] | 1 | G (a ratio of 0 to 1) | > 1000 nM | 10000 nM | > 1000 nM | 5010 nM | – | – |
| O=c1[nH]c2nccc(-c3cccc(N4CCNCC4)n3)c2[nH]1 [Example 14] | 2 | F (a ratio of between 1 and 5) | 316 to 1000 nM | 631 nM | 100 to 316 nM | 100 nM | – | – |
| O=c1[nH]c2nccc(-c3cc(N4CCNCC4)ccc3F)c2[nH]1 [Example 15] | 3 | F (a ratio of between 1 and 5) | > 1000 nM | 10000 nM | 316 to 1000 nM | 501 nM | – | – |
| O=c1[nH]c2nccc(-c3cc(N4CCNCC4)ccn3)c2[nH]1 [Example 16] | 1 | G (a ratio of 0 to 1) | > 1000 nM | 10000 nM | > 1000 nM | 6310 nM | – | – |
